We go through 21 molecules from patent US8785488B2 (Exelixis Patent Company LLC, priority 2009, dated 2014).

One assay concerns the target T1, h-TGR5 (Homo sapiens, UniProt Q8TDU6).
T1 construct: expressed in transfected cells
T1 sequence (Q8TDU6 1-330): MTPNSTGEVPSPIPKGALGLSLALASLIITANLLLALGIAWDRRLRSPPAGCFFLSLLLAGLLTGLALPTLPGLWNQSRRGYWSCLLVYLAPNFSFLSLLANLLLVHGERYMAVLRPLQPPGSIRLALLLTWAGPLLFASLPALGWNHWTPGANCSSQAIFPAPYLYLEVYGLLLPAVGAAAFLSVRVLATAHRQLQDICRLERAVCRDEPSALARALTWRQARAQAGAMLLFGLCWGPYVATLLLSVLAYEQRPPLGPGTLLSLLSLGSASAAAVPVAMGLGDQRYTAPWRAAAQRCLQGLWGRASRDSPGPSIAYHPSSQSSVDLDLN
As to the kind of experiment: TGR5 cAMP Assay using Cisbio cAMP Dynamic2 htrf kit (hTGR5CRE-luc HEK 293 cells). The conditions noted are these: h-TGR5 cAMP EC50, Table 1; read-out: cAMP (EC50). It counts as cell-based. How it is done:
Compounds were diluted in DPBS with 5% DMSO (8-point serial dilution by half logs) in a 96-well plate and 1 μL was transferred to a 384-well assay plate in quadruplicate. The d2-cAMP and anti-cAMP Ab-cryptate stock solution were prepared as per the instructions in the Cisbio™ (Bedford, Mass.) kit. […] Cells were adjusted to 0.44×10^6 cells/ml followed by addition of IBMX to a final concentration of 0.5 mM. The cells were then mixed with d2-cAMP solution (7.1 mL cells+100 ul d2-cAMP) and 4000 cells (9 μL) were transferred to each well of the 384-well assay plate. Cells without d2-cAMP were added to eight wells as a negative control. The plate was covered and incubated at room temp for 30 min. Then 10 μL of Ab-cryptate solution was added to each well of the assay plate and incubated for 1 hr. The plate was read on an EnVision™ plate reader (Perkin-Elmer, Waltham, Mass.) and the DeltaF value was calculated as per the instructions in the Cisbio™ kit.
In the following tables, EC50 values determined according to the TGR5 cAMP Assay described herein (cAMP); EC50 values determined according to the TGR5/CRE-Luciferiase Assay described herein (CRE-Luc). […] The following compounds in Tables 1 and 2 were made by using procedures described in the above Schemes and Examples, and, where applicable, by making any necessary substitutions of known materials that one skilled in the art would ordinarily understand how to do.

The target in the next assay is T2, human TGR5 (h-TGR5) (Homo sapiens, UniProt Q8TDU6).
T2 construct: expressed in transfected cells
T2 sequence (Q8TDU6 1-330): T1 sequence (Q8TDU6 1-330)
As to the kind of experiment: TGR5/CRE-Luciferiase Assay (HEK 293 hTGR5/CRE-Luc cells). It counts as cell-based. Conditions: h-TGR5 CRE-Luc EC50, Table 1; read-out: CRE-Luc (EC50). The procedure, abridged:
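HEK293 cells stably carrying hTGR5 and a CRE-luciferase reporter were exposed to serially diluted compounds (diluted in DMEM with 5% DMSO) for 6 h. Cells were then lysed in luciferase buffer, luminescence was read, and EC50 values were derived from dose-response curves.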

Regarding `COc1cc(C(C)(C)c2cnc(SCc3ccc(S(=O)(=O)NC(=O)NN4CCCC4)cc3Cl)n2-c2ncc(F)cc2F)ccc1Cl` [3-chloro-4-({[5-{1-[4-chloro-3-(methyloxy)phenyl]-1-methylethyl}-1-(3,5-difluoropyridin-2-yl)-1H-imidazol-2-yl]thio}methyl)-N-[(pyrrolidin-1-ylamino)carbonyl]benzenesulfonamide], the EC50 at h-TGR5 lay in the range of 1000 to 10000 nM.

In the case of `Cc1cc(-n2c(C(C)(C)c3ccc(F)cc3)cnc2SCc2ccc(S(=O)(=O)NC(=O)NN3CCCC3)cc2Cl)ccc1F` [3-chloro-4-[({1-(4-fluoro-3-methylphenyl)-5-[1-(4-fluorophenyl)-1-methylethyl]-1H-imidazol-2-yl}thio)methyl]-N-[(pyrrolidin-1-ylamino)carbonyl]benzenesulfonamide], on h-TGR5, the EC50 was 100 to 1000 nM.

As to `CC(C)(c1ccc(F)c(C(F)F)c1)c1cnc(SCc2ccc(S(=O)(=O)NC(=O)NN3CCCC3)cc2Cl)n1-c1ccc(F)cc1` [3-chloro-4-({[5-{1-[3-(difluoromethyl)-4-fluorophenyl]-1-methylethyl}-1-(4-fluorophenyl)-1H-imidazol-2-yl]thio}methyl)-N-[(pyrrolidin-1-ylamino)carbonyl]benzenesulfonamide], the EC50 on h-TGR5 lay within 1000 to 10000 nM.

Turning to `COc1cc(C(C)(C)c2cnc(SCc3ccc(S(=O)(=O)NC(=O)NCC(=O)O)cc3Cl)n2-c2ccc(F)cc2)ccc1Cl` [N-[({[3-chloro-4-({[5-{1-[4-chloro-3-(methyloxy)phenyl]-1-methylethyl}-1-(4-fluorophenyl)-1H-imidazol-2-yl]thio}methyl)phenyl]sulfonyl}amino)carbonyl]glycine], at h-TGR5, the EC50 was in the range of 100 to 1000 nM.

`COc1cc(C(C)(C)c2cnc(SCc3ccc(S(=O)(=O)NC(=O)NN4CCCC4)cc3Cl)n2-c2cc(C)c(Cl)cn2)ccc1Cl` [3-chloro-4-({[5-{1-[4-chloro-3-(methyloxy)phenyl]-1-methylethyl}-1-(5-chloro-4-methylpyridin-2-yl)-1H-imidazol-2-yl]thio}methyl)-N-[(pyrrolidin-1-ylamino)carbonyl]benzenesulfonamide]: the EC50 at h-TGR5 was 1000 to 10000 nM.

As for `CC(C)(c1ccc(S(C)(=O)=O)cc1)c1cnc(SCc2ccc(Cl)c(-c3nnn[nH]3)c2)n1-c1ccc(F)c(F)c1` [5-[2-chloro-5-({[1-(3,4-difluorophenyl)-5-{1-methyl-1-[4-(methylsulfonyl)phenyl]ethyl}-1H-imidazol-2-yl]thio}methyl)phenyl]-1H-tetrazole], the EC50 at h-TGR5 lay within 1000 to 10000 nM.

Consider `COc1cc(C(C)(C)c2cnc(SCc3ccc(S(=O)(=O)NC(=O)NN4CCCC4)cc3Cl)n2-c2ccc(F)cc2)ccc1S(C)(=O)=O` [3-chloro-4-({[1-(4-fluorophenyl)-5-{1-methyl-1-[3-(methyloxy)-4-(methylsulfonyl)phenyl]ethyl}-1H-imidazol-2-yl]thio}methyl)-N-[(pyrrolidin-1-ylamino)carbonyl]benzenesulfonamide], for which the EC50 on h-TGR5 is 100 to 1000 nM.

Consider `CC(C)(c1ccc(S(N)(=O)=O)cc1)c1cnc(SCc2ccc(S(=O)(=O)NC(=O)NN3CCOCC3)cc2Cl)n1-c1ccc(F)c(Cl)c1` [4-({[5-{1-[4-(aminosulfonyl)phenyl]-1-methylethyl}-1-(3-chloro-4-fluorophenyl)-1H-imidazol-2-yl]thio}methyl)-3-chloro-N-[(morpholin-4-ylamino)carbonyl]benzenesulfonamide], for which the EC50 at h-TGR5 lay within 1000 to 10000 nM.

With `CC(C)(c1ccc(S(C)(=O)=O)cc1)c1cnc(SCc2ccc(Cl)c(-c3nnn[nH]3)c2)n1-c1ccc(F)cc1` [5-[2-chloro-5-({[1-(4-fluorophenyl)-5-{1-methyl-1-[4-(methylsulfonyl)phenyl]ethyl}-1H-imidazol-2-yl]thio}methyl)phenyl]-1H-tetrazole], at h-TGR5, the EC50 is 1000 to 10000 nM.

Turning to `COCC1CCCN1NC(=O)NS(=O)(=O)c1ccc(CSc2ncc(C(C)(C)c3ccc(Cl)c(OC)c3)n2-c2ccc(F)cc2)c(Cl)c1` (stereo in doubt) [3-chloro-4-({[5-{1-[4-chloro-3-(methyloxy)phenyl]-1-methylethyl}-1-(4-fluorophenyl)-1H-imidazol-2-yl]thio}methyl)-N-[({(2S)-2-[(methyloxy)methyl]pyrrolidin-1-yl}amino)carbonyl]benzenesulfonamide], the EC50 at h-TGR5 is 100 to 1000 nM.

In the case of `CNS(=O)(=O)c1ccc(C(C)(C)c2cnc(SCc3ccc(S(=O)(=O)NC(=O)NN4CCCC4)cc3Cl)n2-c2ccc(F)cc2)cc1OC` [4-{1-[2-({[2-chloro-4-({[(pyrrolidin-1-ylamino)carbonyl]amino}sulfonyl)phenyl]methyl}thio)-1-(4-fluorophenyl)-1H-imidazol-5-yl]-1-methylethyl}-N-methyl-2-(methyloxy)benzenesulfonamide], at h-TGR5, the EC50 was 100 to 1000 nM.

Turning to `CC(C)(c1ccc(S(C)(=O)=O)cc1)c1cnc(SCc2c(F)cc(C(=O)O)cc2F)n1-c1ccc(F)cn1` [3,5-difluoro-4-({[1-(5-fluoropyridin-2-yl)-5-{1-methyl-1-[4-(methylsulfonyl)phenyl]ethyl}-1H-imidazol-2-yl]thio}methyl)benzoic acid], the EC50 at h-TGR5 lay in the range of 1000 to 10000 nM.

Turning to `CC(C)(c1ccc(S(N)(=O)=O)cc1)c1cnc(SCc2ccc(S(=O)(=O)NC(=O)NN3CCOCC3)cc2Cl)n1-c1ccc(F)c(F)c1` [4-({[5-{1-[4-(aminosulfonyl)phenyl]-1-methylethyl}-1-(3,4-difluorophenyl)-1H-imidazol-2-yl]thio}methyl)-3-chloro-N-[(morpholin-4-ylamino)carbonyl]benzenesulfonamide], the EC50 at h-TGR5 was 1000 to 10000 nM.

Turning to `Cc1cc(-n2c(C(C)(C)c3ccc(S(C)(=O)=O)cc3)cnc2SCc2ccc(S(=O)(=O)NC(=O)NN3CCCC3)cc2Cl)ccc1F` [3-chloro-4-({[1-(4-fluoro-3-methylphenyl)-5-{1-methyl-1-[4-(methylsulfonyl)phenyl]ethyl}-1H-imidazol-2-yl]thio}methyl)-N-[(pyrrolidin-1-ylamino)carbonyl]benzenesulfonamide], the EC50 at h-TGR5 fell in the range of 1000 to 10000 nM.

On to `CC(C)(c1ccc(S(C)(=O)=O)cc1)c1cnc(SCc2ccc(S(=O)(=O)NC(=O)NN3CCCC3)cc2Cl)n1-c1ccc(F)c(F)c1` [3-chloro-4-({[1-(3,4-difluorophenyl)-5-{1-methyl-1-[4-(methylsulfonyl)phenyl]ethyl}-1H-imidazol-2-yl]thio}methyl)-N-[(pyrrolidin-1-ylamino)carbonyl]benzenesulfonamide], for which, at h-TGR5, the EC50 fell in the range of 1000 to 10000 nM.

As to `CC(C)(c1ccc(Cl)cc1)c1cnc(SCc2ccc(S(=O)(=O)NC(=O)NN3CCCC3)cc2Cl)n1-c1ccc(F)cc1F` [3-chloro-4-[({5-[1-(4-chlorophenyl)-1-methylethyl]-1-(2,4-difluorophenyl)-1H-imidazol-2-yl}thio)methyl]-N-[(pyrrolidin-1-ylamino)carbonyl]benzenesulfonamide], the EC50 at h-TGR5 was in the range of 1000 to 10000 nM.

Regarding `COc1cc(-n2c(C(C)(C)c3ccc(F)cc3)cnc2SCc2ccc(S(=O)(=O)NC(=O)NN3CCCC3)cc2Cl)ccc1F` [3-chloro-4-[({1-[4-fluoro-3-(methyloxy)phenyl]-5-[1-(4-fluorophenyl)-1-methylethyl]-1H-imidazol-2-yl}thio)methyl]-N-[(pyrrolidin-1-ylamino)carbonyl]benzenesulfonamide], the EC50 on h-TGR5 fell in the range of 100 to 1000 nM.

Take `CC(C)(c1ccc(Cl)c(Cl)c1)c1cnc(SCc2ccc(F)cc2C#N)n1-c1ccc(F)cc1` [2-[({5-[1-(3,4-dichlorophenyl)-1-methylethyl]-1-(4-fluorophenyl)-1H-imidazol-2-yl}thio)methyl]-5-fluorobenzonitrile]: the EC50 at human TGR5 (h-TGR5) was 100 to 1000 nM.

For the molecule `CC(C)(c1ccc(Cl)c(Cl)c1)c1cnc(SCc2ccc(F)cc2Cl)n1-c1ccc(F)c(C(N)=O)c1` [5-(2-{[(2-chloro-4-fluorophenyl)methyl]thio}-5-[1-(3,4-dichlorophenyl)-1-methylethyl]-1H-imidazol-1-yl)-2-fluorobenzamide], at human TGR5 (h-TGR5), the EC50 was 100 to 1000 nM.

Consider `CC(C)(c1ccc(Cl)c(Cl)c1)c1cnc(SCc2ccc(OCCCO)c(C#N)c2)n1-c1ccc(F)cc1` [5-[({5-[1-(3,4-dichlorophenyl)-1-methylethyl]-1-(4-fluorophenyl)-1H-imidazol-2-yl}thio)methyl]-2-[(3-hydroxypropyl)oxy]benzonitrile], for which the EC50 on human TGR5 (h-TGR5) fell in the range of 100 to 1000 nM.

For `CC(C)(c1ccc(Cl)c(Cl)c1)c1cnc(COc2c(F)cccc2Cl)n1-c1ccc(F)cc1` [2-{[(2-chloro-6-fluorophenyl)oxy]methyl}-5-[1-(3,4-dichlorophenyl)-1-methylethyl]-1-(4-fluorophenyl)-1H-imidazole], the EC50 on human TGR5 (h-TGR5) lay within 100 to 1000 nM.
